Earlier results on one compound are cited in patent US10821087B2, “Stabilized injectable emulsion of Propofol and Ketamine” (NEON LABORATORIES LIMITED, priority 2015, dated 2020).

For the series, the system named is Propofol induced pain. The settings on record: 100 μg/kg Ketamine administered just before Propofol.

Take `CNC1(c2ccccc2Cl)CCCCC1=O` (centres unmarked) [Ketamine]: the adverse hemodynamic effects entry is recorded as “without significant adverse hemodynamic effects”; the “incidence and intensity of Propofol induced pain” value is “reduce the incidence and intensity of Propofol induced pain”.
